Results taken from ChEMBL document CHEMBL1250548, “Synthesis and anti-HIV-1 evaluation of phosphonates which mimic the 5'-monophosphate of 4'-branched 2',3'-didehydro-2',3'-dideoxy nucleosides” (Bioorg Med Chem, 2010).

Columns and labels:
[1] = test system: Human immunodeficiency virus 1; test: Antiviral activity against HIV1 infected in human MT4 cells assessed as protection against virus-induced cytopathic effect; type: functional, organism-based; details: Human immunodeficiency virus 1, MT4
[2] = Cytotoxicity against human MT4 cells assessed as reduction of cell viability; type: cell-based

SMILES | IC50 [1] [µM] | CC50 [2] [µM]
Cc1cn([C@H]2C=C[C@@H](CO)O2)c(=O)[nH]c1=O [STAVUDINE] | 1.2 | > 600
C#C[C@@]1(OCP(=O)(O)O)C=C[C@H](n2cc(C)c(=O)[nH]c2=O)O1 | > 100 | > 100
Cc1cn([C@H]2C=C[C@@H](OCP(=O)(O)O)O2)c(=O)[nH]c1=O | 12 | > 600

Continued, in another order:

IC50 [1] [µM] | SMILES | CC50 [2] [µM]
1.69 | C#C[C@@]1(OCP(=O)(O)O)C=C[C@H](n2cnc3c(N)ncnc32)O1 | > 100
1.5 | Nc1ncnc2c1ncn2[C@H]1C=C[C@@H](OCP(=O)(O)O)O1 | > 600
